In one data set the test system is mice. In words: Observation of behaviour and death rate in mice (Irwin method). It counts as in vivo. Particulars: for SYMPTOMS: male mice, 4 animals/dose, n.e. = no effect; for DEATH RATE: mouse, in vivo. The procedure: The observation of normal behaviour in mice was conducted following the method by S. Irwin, Psychopharmacologia 13, 222 ( 1968). This method allows alterations of some behavioural, neurophysiological and neurovegetative parameters directly detectable by the experimenter to be visualized.
The test was conducted in male mice [Crl;(CD-I)(ICR)BR, Charles River - Italy] weighing 22-25 g, following oral administration of the compounds suspended in carboxymethylcellulosa (0.5% by weight in H₂O) to groups of 4 animals/dose.
The animals were kept under continuous observation for five hours following treatment and twice a day for the subsequent five days.
Death rate was also observed during the whole test period. The initial administered dose was 1,000 mg/kg per os; lower doses were administered following death of some animals or after marked effects at the initial dose were dected.

Data set [1] deals with PAF-induced platelet aggregation. In words: PAF-induced platelet aggregation in platelet rich plasma. The data set is classed as cell-based, rabbits. Particulars: Oryctolagus cuniculus, 2 min, compound 10^-5M, 2 minutes of incubation, rabbit PRP. The procedure:
Blood was collected from male rabbits (HY/Charles River, Italy) by heart puncture using a plastic syringe and transferred immediately into plastic tubes containing 3.8% (by weight) solution of sodium citrate (0.1 ml/ml blood).
PRP (Platelet Rich Plasma) was obtained by plasma centrifugation at 145 x g for 5 minutes at 22°C. Platelet number was determined with a CA 580A (Delcon) "platelet counter". The platelet number was adjusted to the fixed value of […] by adding PPP (Platelet Poor Plasma). PPP was obtained by centrifuging blood at 1600 x g for 10 minutes at 22°C.
(§1) Platelet aggregation was determined photometrically (G.V.R. Born, Nature 194, 927; 1962) with an ELVI 840 aggregometer in plastic tubes under continuous stirring at 1000 rpm.
(§2) Maximal light transmission (100% ) was recorded by reading PPP, while 0% transmission was recorded by reading PRP. The PRP aggregation degree induced by the aggregation factor (PAF) was calculated as percentage of maximal light transmittance obtained with PPP using 250 µL samples of PRP.
(§3) The compounds were dissolved in bidistilled water at the concentration of 10⁻⁵ M and tested after 2 minutes of incubation.
(§4) Aggregation inhibition was calculated as percentage of the value obtained in the presence of the aggregating agent only.

Data set [2] deals with ADP-induced platelet aggregation. In words: ADP-induced platelet aggregation in platelet rich plasma. Particulars: 2 min, compound 10^-5M, 2 minutes of incubation, rat PRP. The data set is classed as cell-based, rats. As for the experimental part: as §1, §2, §3, §4
Blood was drawn from the abdominal aorta of male rats (Crl:(WI)BR, Charles River, Italy) under barbiturate anaesthesia and quickly transferred into plastic tubes containing 0.1 mL/mL blood of 3.8% (by weight) solution of sodium citrate. PRP was obtained by plasma centrifugation at 115 x g for 5 minutes at 22°C and PPP by centrifugation at 1600 x g for 10 minutes. The final PRP platelet number was adjusted to the fixed value of […] of PRP by adding PPP.
Platelet count was made with a CA580 A(Delcan) platelet counter. The same procedure outlined in the paragraph "PAF aggregation" was followed for the ADP-induced aggregation.

For data set [3], the target named is T1, PAF (platelet activating factor) receptors (Oryctolagus cuniculus, UniProt G1TEI7).
T1 construct: Blood was drawn via indracardiac puncture from male rabbits; from tissue; host or cells: Platelets from the blood of male rabbits (HY/CR strain, Charles River, Italy)
Put plainly: Binding to PAF receptors (3H-PAF displacement in rabbit platelets). Particulars: 50% inhibiting concentration of specific receptor binding, 3H-PAF 0.5 nM, 30 minutes at 25°C. The procedure:
The binding of the compounds under examination to rabbit platelet receptors was studied following the procedure disclosed by D. Nunez et al, Eur J. Pharmacol. 123, 197 (1986).
Blood was drawn via indracardiac puncture from male rabbits (HY/CR strain-Charles River, Italy) weighing 2.5-3.0 Kg.
Blood was diluted (1:9) in a ACD (0.8% citric acid, 2.2% trisodium citrate, 2.45% glucose, weight percentages) solution and centrifuged at 100 x g for 15 minutes.
The precipitate was suspended in the incubation buffer at […] platelet/ml concentration, immediately before binding.
The platelet number and possible erythrocyte contamination was controlled with a platelet counter DELCON CA480.
Platelets were incubated in polyethylene tubes with ³H-PAF (0.5 nM) for 30 minutes at 25°C. The test compounds were added to a volume of 200 µl. The final volume was equal to 500 µl. Incubation was stopped by rapid filtration under vacuum through GF/C filters (WHATMAN) washed with (3x3 ml) cold incubation buffer using a Brondel Cell Harvester filtration system. The filters were counted in 8 mL OptiFluor (Packard) using a TRI-CARB 1900 CA-Packard liquid scintillation spectrometer (about 50% counting efficiency).
The percentage of inhibition of the specific binding receptor-radioligand was calculated for each concentration (mean of incubations in triplicate).
The competition curve, the slope of the curve, and the IC₅₀ value (concentration which inhibits 50% of the specific radioligand-receptor binding) were calculated with the "All fit" program (A. De Lean et al., Am. J. Physiol. 235, E97, 1978) runned in a 55-SX IBM computer.

Usually inhibition stands for the relative decrease from the control value, in per cent. The low end stands for a response near the control, the high end for a response far below the control. A word on the IC50: it is the concentration at which inhibition is half-maximal. High values mean weaker potency, low ones greater potency.

Each structure is given as a SMILES string.

T1 sequence (G1TEI7 1-342): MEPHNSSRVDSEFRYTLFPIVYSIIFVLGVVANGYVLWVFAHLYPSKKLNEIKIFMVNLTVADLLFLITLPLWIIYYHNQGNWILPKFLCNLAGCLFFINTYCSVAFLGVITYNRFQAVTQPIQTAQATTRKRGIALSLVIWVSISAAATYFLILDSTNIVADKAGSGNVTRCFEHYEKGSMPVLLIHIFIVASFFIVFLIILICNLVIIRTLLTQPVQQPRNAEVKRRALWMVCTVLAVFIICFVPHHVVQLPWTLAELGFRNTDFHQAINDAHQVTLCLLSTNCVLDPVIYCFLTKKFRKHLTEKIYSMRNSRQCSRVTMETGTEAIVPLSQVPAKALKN

With `CC(C)C(=O)O[C@H](CC(=O)OC/C=C1\OC(=O)c2cc(Cl)ccc21)C[N+](C)(C)C` [ST 806], the SYMPTOMS result in the data set on mice (600 mg/kg per os) and in the data set with mice (1000 mg/kg per os) was “salivation” throughout. In addition, the figures for the “DEATH RATE” value with mice (600 mg/kg) and in the data set with mice (1000 mg/kg) were 0/4 and 1/4, respectively. For the same compound, the inhibition at 10 µM in data set [1] stood at 95%; in data set [2], 18%. The compound further yielded a concentration for half-maximal inhibition (IC50) in data set [3] of 18 nM.

For the compound `CC(=O)O[C@H](CC(=O)OC/C=C1\OC(=O)c2cc(Cl)ccc21)C[N+](C)(C)C` [ST 804], the SYMPTOMS entry in the data set on mice (600 mg/kg per os) and in the data set with mice (1000 mg/kg per os) was “salivation” throughout. Also, the “DEATH RATE” value is on record as 0/4 in the data set with mice (600 mg/kg) and 1/4 with mice (1000 mg/kg). Also, the inhibition at 10 µM turned out to be 96% in data set [1] and 13% in data set [2]. Further, in data set [3], the IC50 stood at 19 nM.

In the case of `C[N+](C)(C)C[C@H](O)CC(=O)OC/C=C1\OC(=O)c2ccccc21` [ST 736, (Z)-(3-phtalidylidene)ethyl ester of L-carnitine bromide], the SYMPTOMS entry in the data set on mice (600 mg/kg per os) is given as “n.e”; with mice (1000 mg/kg per os), “convulsion, salivation”. Besides, the “DEATH RATE” value was 0/4 in the data set on mice (600 mg/kg) and 3/4 in the data set on mice (1000 mg/kg). In data set [3], this compound displayed an IC50 of 9300 nM.

For the compound `CCC(=O)O[C@H](CC(=O)OC/C=C1\OC(=O)c2cc(Cl)ccc21)C[N+](C)(C)C` [ST 805], the SYMPTOMS result in the data set on mice (600 mg/kg per os) and in the data set on mice (1000 mg/kg per os) was “salivation” in each case. The “DEATH RATE” value in the data set with mice (600 mg/kg) is 0/4; in the data set with mice (1000 mg/kg), 1/4. For the same compound, the inhibition at 10 µM is 40% in data set [1] and 10% in data set [2]. Also, in data set [3], the IC50 was determined as 22 nM.

Take `CC(C)CC(=O)O[C@H](CC(=O)OC/C=C1\OC(=O)c2cc(Cl)ccc21)C[N+](C)(C)C` [ST 803]: the SYMPTOMS result in the data set on mice (1000 mg/kg per os) is “diarrhea”. Moreover, the “DEATH RATE” value in the data set on mice (1000 mg/kg) is 0/4. The inhibition at 10 µM in data set [1] is 72%; in data set [2], 8%. In data set [3], this compound returned an IC50 of 6.6 nM.

Regarding `CC(=O)O[C@H](CC(=O)OC/C=C1\OC(=O)c2ccccc21)C[N+](C)(C)C` [ST 739], the figures for the SYMPTOMS entry in the data set on mice (600 mg/kg per os) and in the data set with mice (1000 mg/kg per os) were “n.e” and “jerks”, respectively. Also, the results for the “DEATH RATE” value in the data set with mice (600 mg/kg) and with mice (1000 mg/kg) were 0/4 and 2/4, respectively. The IC50 in data set [3] worked out at 5300 nM.

For the compound `CC(C)CC(=O)O[C@H](CC(=O)OC/C=C1\OC(=O)c2ccccc21)C[N+](C)(C)C` [ST 776], the SYMPTOMS result in the data set with mice (600 mg/kg per os) is recorded as “n.e”; in the data set with mice (1000 mg/kg per os), “convulsion, salivation”. Also, the entries for the “DEATH RATE” value in the data set on mice (600 mg/kg) and in the data set with mice (1000 mg/kg) were 0/4 and 2/4, respectively. Further, the inhibition at 10 µM in data set [1] amounted to 100%; in data set [2], 5%. In data set [3], this compound registered an IC50 of 3600 nM.

Turning to `C[N+](C)(C)C[C@H](O)CC(=O)OC/C=C1\OC(=O)c2cc(Cl)ccc21` [ST 801], in the data set with mice (1000 mg/kg per os), the SYMPTOMS result is reported as “salivation”. Besides, in the data set on mice (1000 mg/kg), the “DEATH RATE” value was 0/4. The inhibition at 10 µM in data set [1] is 97%; in data set [2], 7%. Further, the 50% inhibitory concentration (IC50) in data set [3] came out at 20 nM.

As for `CCC(=O)O[C@H](CC(=O)OC/C=C1\OC(=O)c2ccccc21)C[N+](C)(C)C` [ST 768], the SYMPTOMS entry in the data set on mice (600 mg/kg per os) is recorded as “n.e”; in the data set with mice (1000 mg/kg per os), “convulsion, salivation diarrhea, lacrimation”. Also, the “DEATH RATE” value with mice (600 mg/kg) is 0/4; in the data set on mice (1000 mg/kg), 1/4. In addition, the IC50 in data set [3] came to 6700 nM.

Take `CC(C)C(=O)O[C@H](CC(=O)OC/C=C1\OC(=O)c2ccccc21)C[N+](C)(C)C` [ST 775]: the SYMPTOMS result in the data set on mice (1000 mg/kg per os) is reported as “n.e”. Further, the “DEATH RATE” value in the data set on mice (1000 mg/kg) is 0/4. The compound further registered an IC50 in data set [3] of 2000 nM.

The record behind these values is patent EP0488965A1, “Phthalidilidene derivatives of carnitine and alkanoylcarnitines and pharmaceutical compositions containing them” (Sigma-Tau Industrie Farmaceutiche Riunite S.p.A., priority 1990, dated 1992).
